Reference: patent US5922838A, “Cyclic hexapeptide compounds” (Taisho Pharmaceutical Co., Ltd., priority 1995, dated 1999)

System: colon 26 (mouse colon cancer)
Assay: Anti-tumor effect on colon 26 (mouse colon cancer), subcutaneous transplant in CDF1 mice
Type: in vivo
Conditions: intravenously from day 3 on for 5 days, tumor volume ratio measured day 8, CDF1 male mice, T/C of not more than 42% judged effective
Method: Test Example [Anti-tumor effect on colon 26 (mouse colon cancer)]
A test was carried out according to the procedure disclosed in Cancer Res., 50. 2290~2295 (1990).
Colon 26 tumor tissue subcultured and transplanted on BALB/c female mice was excised from tumor-bearing mice by incision on the 11th day after the transplantation, and after removal of connective tissues it was minced with scissors. Then, 5 ml of Hank's balanced salt solution was added to 1 g of the tumor, followed by homogenization in a Luer-Lok syringe. After filtration through silicone gauze, cell number in the filtrate cell solution was counted by a hemocytometer and adjusted to 1.0 ×10^6 cells/ml. The resulting cell suspension was subcutaneously transplanted to CDF1 male mice (aged 6 weeks, Charles River, Japan Co.) at the right axillary site at a dose of 0.2 ml/mouse to provide test tumor-bearing mice with each group consisting of 8 mice. The day of cell transplantation was designated as "day 0". TI-356 was dissolved into a surfactant (a solution of HCO 60: polyethyleneglycol =2:1), followed by slow addition of physiological saline thereto to prepare test solutions of various concentrations with the ultimate concentration being about 0.5%. The test solutions were intravenously administered from "day 3" on for 5 days.
RA-VII was used as control.
Tumor propagation-inhibiting effect was determined by measuring the principal axis and the conjugate axis of tumor by a vernier caliper on the day following the completion to administer the compound (day 8) and calculating a tumor volume, a tumor volume ratio and T/C (%) according to the following formulae. T/C of not more than 42% was judged to be effective. [formula]

SMILES | T/C (%) (dose 0.8 mg/kg) | T/C (%) (dose 1.6 mg/kg) | T/C (%) (dose 3.13 mg/kg) | T/C (%) (dose 6.25 mg/kg)
COc1ccc(C[C@H]2C(=O)N[C@@H](C)C(=O)N(C)C3Cc4ccc(cc4)Oc4cc(ccc4OCCN(C(C)C)C(C)C)CC(C(=O)N[C@H](C)C(=O)N[C@@H](C)C(=O)N2C)N(C)C3=O)cc1 (stereo partly drawn) [TI-356] | 42.1% | 41.5% | 34.5% | 
COc1ccc(C[C@H]2C(=O)N[C@@H](C)C(=O)N(C)[C@H]3Cc4ccc(cc4)Oc4cc(ccc4OC)C[C@@H](C(=O)N[C@H](C)C(=O)N[C@@H](C)C(=O)N2C)N(C)C3=O)cc1 [RA-VII] |  | 55.8% | 48.0% | 49.0%
